The record followed here is patent US12599672B2, “KRAS proteolysis targeting chimeras” (PAQ Therapeutics Inc., priority 2023, dated 2026).

What all share (type): cell-based
One experiment has as its target T1, KRAS G12D (Homo sapiens, UniProt P01116, G12D).
T1 construct: AsPc-1-KRAS (G12D)-HiBit-KI cell (Pharmaron); host or cells: AsPc-1-KRAS (G12D)-HiBit-KI cells (HiBiT knock-in at the endogenous KRAS locus)
Kind of experiment: KRAS G12D HiBit assay. To be noted: AsPc-1-KRAS (G12D)-HiBit-KI cell, compound treatment for 24 hours; for DC50: absolute DC50. In outline:
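HiBiT luminescence, detected by adding lytic buffer, substrate and LgBiT protein, served as the KRAS G12D read-out. Compounds, serially diluted 3-fold over 10 points from 0.3 mM DMSO stock, were on cells for 24 h; percent inhibition normalized to cells given 0.1% DMSO only.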
For orientation: The HiBiT peptide binds its large partner to form an active luciferase.

Another experiment concerns the target T2, KRAS G12V (Homo sapiens, UniProt P01116, G12V).
T2 construct: SW620-KRAS (G12V)-HiBit-KI cell (Pharmaron); host or cells: SW620-KRAS (G12V)-HiBit-KI cells (HiBiT knock-in at the endogenous KRAS locus)
The experiment can be described thus: KRAS G12V HiBit assay. To be noted: SW620-KRAS (G12V)-HiBit-KI cells, compound treatment for 24 hours, class symbols. In outline:
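Luminescence from lytic Nano-Glo HiBiT detection with LgBiT read KRAS G12V levels after 24 h compound exposure. Dilutions were 10-point, 3-fold, from a 0.3 mM DMSO stock. Degradation activity was normalised to cells given 0.1% DMSO alone.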

The target of the next experiment is T3, KRAS (Homo sapiens, UniProt P01116).
T3 construct: endogenous in cells; host or cells: KE39 (KRAS amplified) cells
T3 sequence (P01116 1-188 isoform P01116-2): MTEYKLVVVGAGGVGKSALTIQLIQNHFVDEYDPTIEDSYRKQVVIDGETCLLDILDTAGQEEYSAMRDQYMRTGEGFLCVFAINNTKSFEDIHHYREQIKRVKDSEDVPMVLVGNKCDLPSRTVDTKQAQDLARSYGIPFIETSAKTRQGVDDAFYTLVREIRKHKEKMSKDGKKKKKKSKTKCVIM
The experiment can be described thus: KRASamp MSD assay. The note with it: KE39 (KRAS amplified) cells, treated with test compounds for 24 hr, MSD readout of KRAS degradation. In outline:
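Degradation DC50 derived by curve fitting, with KRAS levels quantified by MSD electrochemiluminescence (capture/detection antibodies, recombinant WT KRAS standard). Lysates prepared from KE39 cells (KRAS amplified) exposed to test compounds for 24 hr.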

Where [1] appears, read: numeric bounds given in place of class symbols.

T2 sequence (P01116 1-188 isoform P01116-2 G12V): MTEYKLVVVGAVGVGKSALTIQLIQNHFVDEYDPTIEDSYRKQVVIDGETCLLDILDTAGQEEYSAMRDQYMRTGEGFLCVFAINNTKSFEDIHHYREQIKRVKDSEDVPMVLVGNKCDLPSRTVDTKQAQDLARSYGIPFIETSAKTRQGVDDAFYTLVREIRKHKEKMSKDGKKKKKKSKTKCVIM
T1 sequence (P01116 1-188 isoform P01116-2 G12D): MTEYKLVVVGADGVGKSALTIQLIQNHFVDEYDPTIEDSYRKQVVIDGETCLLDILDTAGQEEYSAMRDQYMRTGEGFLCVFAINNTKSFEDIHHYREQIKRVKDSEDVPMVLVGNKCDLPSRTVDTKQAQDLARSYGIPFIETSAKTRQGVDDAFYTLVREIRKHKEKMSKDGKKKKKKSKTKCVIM

Take `CCc1c(F)ccc2cc(O)cc(-c3ncc4c(N5CCOCC(C)(O)C5)nc(OC[C@@]56CCCN5[C@H](COC(=O)N5CCC(CN7CCC(c8ccc9c(c8)n(C)c(=O)n9C8CCC(=O)NC8=O)CC7)CC5)CC6)nc4c3F)c12` (stereo partly drawn) [Compound 118, ((3S,7aS)-7a-(((7-(8-Ethyl-7-fluoro-3-hydroxynaphthalen-1-yl)-8-fluoro-4-(6-hydroxy-6-methyl-1,4-oxazepan-4-yl)pyrido[4,3-d]pyrimidin-2-yl)oxy)methyl)hexahydro-1H-pyrrolizin-3-yl)methyl4-((4-(1-(2,6-dioxopiperidin-3-yl)-3-methyl-2-oxo-2,3-dihydro-1H-benzo[d]imidazol-5-yl)piperidin-1-yl)methyl) piperidine-1-carboxylate]: the DC50 on KRAS G12D (class symbols) was less than 100 nM; at KRAS G12V it was less than 10 nM; on KRAS, less than 1 nM.

Consider `C#Cc1c(F)ccc2cc(O)cc(-c3ncc4c(N5CCC[C@@](C)(O)C5)nc(OC[C@@]56CCCN5[C@H](COC(=O)N5CCC7(CC5)CC(N5CCC(c8cccc9c8n(C)c(=O)n9C8CCC(=O)NC8=O)CC5)C7)CC6)nc4c3F)c12` (stereo partly drawn) [Compound 387, ((3S,7aS)-7a-(((7-(8-ethynyl-7-fluoro-3-hydroxynaphthalen-1-yl)-8-fluoro-4-((R)-3-hydroxy-3-methylpiperidin-1-yl)pyrido[4,3-d]pyrimidin-2-yl)oxy)methyl)hexahydro-1H-pyrrolizin-3-yl)methyl 2-(4-(1-(2,6-dioxopiperidin-3-yl)-3-methyl-2-oxo-2,3-dihydro-1H-benzo[d]imidazol-4-yl)piperidin-1-yl)-7-azaspiro[3.5]nonane-7-carboxylate], for which the DC50 at KRAS G12D (class symbols) was less than 100 nM; on KRAS G12V, less than 10 nM; at KRAS it was not below 10 nM.

`CCc1c(F)ccc2cc(O)cc(-c3ncc4c(N5CCCC5)nc(OC[C@@]56CCCN5[C@H](COC(=O)N5CCC7(CC5)CC(N5CCC(c8ccc9c(c8)n(C)c(=O)n9C8CCC(=O)NC8=O)CC5)C7)CC6)nc4c3F)c12` (stereo partly drawn) [Compound 348, ((3S,7aS)-7a-(((7-(8-ethyl-7-fluoro-3-hydroxynaphthalen-1-yl)-8-fluoro-4-(pyrrolidin-1-yl)pyrido[4,3-d]pyrimidin-2-yl)oxy)methyl)hexahydro-1H-pyrrolizin-3-yl)methyl 2-(4-(1-(2,6-dioxopiperidin-3-yl)-3-methyl-2-oxo-2,3-dihydro-1H-benzo[d]imidazol-5-yl)piperidin-1-yl)-7-azaspiro[3.5]nonane-7-carboxylate]: the DC50 on KRAS G12D (setting [1]) is more than 100 nM; on KRAS G12V it was more than 100 nM; at KRAS it was not below 10 nM.

Regarding `CCc1c(F)ccc2cc(O)cc(-c3ncc4c(N5CCCC(F)(F)C5)nc(OC[C@@]56CCCN5[C@H](COC(=O)N5CCC7(CC5)CC(N5CCC(c8ccc9c(c8)n(C)c(=O)n9C8CCC(=O)NC8=O)CC5)C7)CC6)nc4c3F)c12` (stereo partly drawn) [Compound 470, ((3S,7aS)-7a-(((4-(3,3-difluoropiperidin-1-yl)-7-(8-ethyl-7-fluoro-3-hydroxynaphthalen-1-yl)-8-fluoropyrido[4,3-d]pyrimidin-2-yl)oxy)methyl)hexahydro-1H-pyrrolizin-3-yl)methyl 2-(4-(1-(2,6-dioxopiperidin-3-yl)-3-methyl-2-oxo-2,3-dihydro-1H-benzo[d]imidazol-5-yl)piperidin-1-yl)-7-azaspiro[3.5]nonane-7-carboxylate], the figures for the DC50 on KRAS G12D (class symbols), at KRAS G12V and on KRAS were less than 100 nM, less than 10 nM and less than 1 nM, respectively.

Regarding `C#Cc1c(F)ccc2cc(O)cc(-c3ncc4c(N5CCCCCC5)nc(OC[C@@]56CCCN5[C@H](COC(=O)N5CCC(CN7CCC(c8ccc9c(c8)n(C)c(=O)n9C8CCC(=O)NC8=O)CC7)CC5)CC6)nc4c3F)c12` (stereo partly drawn) [Compound 123, ((3S,7aS)-7a-(((4-(Azepan-1-yl)-7-(8-ethynyl-7-fluoro-3-hydroxynaphthalen-1-yl)-8-fluoropyrido[4,3-d]pyrimidin-2-yl)oxy)methyl)hexahydro-1H-pyrrolizin-3-yl)methyl4-((4-(1-(2,6-dioxopiperidin-3-yl)-3-methyl-2-oxo-2,3-dihydro-1H-benzo[d]imidazol-5-yl)piperidin-1-yl)methyl) piperidine-1-carboxylate], the figures for the DC50 on KRAS G12D (class symbols), at KRAS G12V and on KRAS were less than 100 nM, less than 10 nM and less than 1 nM, respectively. The compound also had a Dmax on KRAS G12D (class symbols) of more than 50%.

Consider `CCc1c(F)ccc2cc(O)cc(-c3ncc4c(N5CCC[C@@](C)(O)C5)nc(OC[C@]56CCCN5[C@H](COC(=O)N5CCC(COc7ccc8c(c7)n(C)c(=O)n8C7CCC(=O)NC7=O)CC5)CC6)nc4c3F)c12` (stereo partly drawn) [Compound 301, ((3S,7aR)-7a-(((7-(8-ethyl-7-fluoro-3-hydroxynaphthalen-1-yl)-8-fluoro-4-((R)-3-hydroxy-3-methylpiperidin-1-yl)pyrido[4,3-d]pyrimidin-2-yl)oxy)methyl)hexahydro-1H-pyrrolizin-3-yl)methyl 4-(((1-(2,6-dioxopiperidin-3-yl)-3-methyl-2-oxo-2,3-dihydro-1H-benzo[d]imidazol-5-yl)oxy)methyl)piperidine-1-carboxylate], for which the DC50 is less than 100 nM at KRAS G12D (class symbols), less than 10 nM at KRAS G12V and less than 1 nM at KRAS.

For `CCc1c(F)ccc2cc(O)cc(-c3ncc4c(N5CCC[C@@](C)(O)C5)nc(OC[C@]56CCCN5[C@H](COC(=O)N5CCC(CCCCOc7ccc8c(c7)n(C)c(=O)n8C7CCC(=O)NC7=O)CC5)CC6)nc4c3F)c12` (stereo partly drawn) [Compound 303, ((3S,7aR)-7a-(((7-(8-ethyl-7-fluoro-3-hydroxynaphthalen-1-yl)-8-fluoro-4-((R)-3-hydroxy-3-methylpiperidin-1-yl)pyrido[4,3-d]pyrimidin-2-yl)oxy)methyl)hexahydro-1H-pyrrolizin-3-yl)methyl 4-(4-((1-(2,6-dioxopiperidin-3-yl)-3-methyl-2-oxo-2,3-dihydro-1H-benzo[d]imidazol-5-yl)oxy)butyl)piperidine-1-carboxylate], the figures for the DC50 on KRAS G12D (class symbols), at KRAS G12V and on KRAS were less than 100 nM, less than 10 nM and 1 to 10 nM, respectively.

`CCc1c(F)ccc2cc(O)cc(-c3ncc4c(N5CCC[C@@](C)(O)C5)nc(OC[C@@]56CCCN5[C@H](COC(=O)N5CCC7(CC5)CCN(C5CCN(c8ccc9c(c8)n(C)c(=O)n9C8CCC(=O)NC8=O)CC5)C7)CC6)nc4c3F)c12` (stereo partly drawn) [Compound 456, ((3S,7aS)-7a-(((7-(8-ethyl-7-fluoro-3-hydroxynaphthalen-1-yl)-8-fluoro-4-((R)-3-hydroxy-3-methylpiperidin-1-yl)pyrido[4,3-d]pyrimidin-2-yl)oxy)methyl)hexahydro-1H-pyrrolizin-3-yl)methyl 2-(1-(1-(2,6-dioxopiperidin-3-yl)-3-methyl-2-oxo-2,3-dihydro-1H-benzo[d]imidazol-5-yl)piperidin-4-yl)-2,8-diazaspiro[4.5]decane-8-carboxylate]: the DC50 at KRAS G12D (class symbols) was less than 100 nM; at KRAS G12V, less than 10 nM; on KRAS, 1 to 10 nM.

For `CCc1c(F)ccc2cc(O)cc(-c3ncc4c(N5CC[C@H](O)C5)nc(OC[C@@]56CCCN5[C@H](COC(=O)N5CCC7(CC5)CC(N5CCC(c8ccc9c(c8)n(C)c(=O)n9C8CCC(=O)NC8=O)CC5)C7)CC6)nc4c3F)c12` (stereo partly drawn) [Compound 349, ((3S,7aS)-7a-(((7-(8-ethyl-7-fluoro-3-hydroxynaphthalen-1-yl)-8-fluoro-4-((S)-3-hydroxypyrrolidin-1-yl)pyrido[4,3-d]pyrimidin-2-yl)oxy)methyl)hexahydro-1H-pyrrolizin-3-yl)methyl 2-(4-(1-(2,6-dioxopiperidin-3-yl)-3-methyl-2-oxo-2,3-dihydro-1H-benzo[d]imidazol-5-yl)piperidin-1-yl)-7-azaspiro[3.5]nonane-7-carboxylate], the DC50 on KRAS G12D (setting [1]) is more than 100 nM; at KRAS G12V it was 10 to 100 nM; on KRAS, 1 to 10 nM.

In the case of `CCc1c(F)ccc2cc(O)cc(-c3ncc4c(N5CCCC(F)(F)C5)nc(OC[C@@]56CCCN5[C@H](COC(=O)N5CCC(CN7CCC(c8ccc9c(c8)n(C)c(=O)n9C8CCC(=O)NC8=O)CC7)CC5)CC6)nc4c3F)c12` (stereo partly drawn) [Compound 437, ((3S,7aS)-7a-(((4-(3,3-difluoropiperidin-1-yl)-7-(8-ethyl-7-fluoro-3-hydroxynaphthalen-1-yl)-8-fluoropyrido[4,3-d]pyrimidin-2-yl)oxy)methyl)hexahydro-1H-pyrrolizin-3-yl)methyl 4-((4-(1-(2,6-dioxopiperidin-3-yl)-3-methyl-2-oxo-2,3-dihydro-1H-benzo[d]imidazol-5-yl)piperidin-1-yl)methyl)piperidine-1-carboxylate], the DC50 is less than 100 nM on KRAS G12D (class symbols), less than 10 nM on KRAS G12V and less than 1 nM on KRAS.
